“Also recorded” adds a separate entry of the source.
Key:
[1] = test system: hippocampal neurons; experiment: Photostimulation of chARGed hippocampal neurons in primary culture, whole-cell current clamp; assay type: cell-based; conditions: 50 μM AP-5 plus 10 μM CNQX together; n=5 neurons
Description: (§1) Synthetic all-trans retinal (Sigma) was diluted, from a 100-mM stock in DMSO, to 40 μM in the appropriate extracellular recording solution (see below) and allowed to bind to NinaE for 15 min in the dark. A mechanically shuttered (Uniblitz, Vincent Associates) Lambda DG-4 rapid wavelength changer (Sutter Instruments) delivered <2 mW of stimulating light without ultraviolet and infrared (E400LP, Chroma; Hot Mirror, Newport) components through 20×/0.4 (oocytes) or 40×/0.8 W (neurons) Zeiss Achroplan objectives. In some experiments, a short pre-illumination with red light (E600LP plus HQ625/40, both from Chroma) preceded the white-light stimulus. Light source and shutter were controlled through pClamp 8.0 (Axon Instruments) and MetaFluor 4.5 (Universal Imaging).
Hippocampal neurons obtained from E19 rats were grown in dissociated cultures (Yuste, Miller et al. “Synapto-pHluorins: chimeras between pH-sensitive mutants of green fluorescent protein and synaptic vesicle membrane proteins as reporters of neurotransmitter release,” Methods Enzymol 522–46 (2000)) and transfected with a calcium phosphate precipitate (pH 7.08) formed from a 1:1 mixture of CsCl-banded pChARGe-1 and pChARGe-2. Neurons were exposed to 4.2 μg/cm^2 of precipitated DNA for 20 minutes. Transfections were done on day 8 after plating, recordings on days 6–10 after transfection. Neurons were identified under DIC and epifluorescence illumination (to distinguish transfected from untransfected cells; FIG. 3) and placed under whole-cell current clamp before reconstitution of NinaE with retinal. Patch pipettes (˜2.5 MΩ) contained, in mM, 120 K-gluconate, 10 KCl, 5 ATP, 0.3 GTP, and 10 K-HEPES, pH 7.2. The extracellular recording solution contained, in mM, 119 NaCl, 2.5 KCl, 2 CaCl2, 1 MgCl2, 30 glucose, 25 Na-HEPES, pH 7.4. Membrane potentials were recorded with an Axoclamp-2B amplifier (Axon Instruments) in bridge mode and digitized at 5 kHz (Digidata 1200, Axon Instruments).
For intracellular recordings of light-evoked electrical activity, neurons were placed under whole-cell current clamp before reconstitution of NinaE with retinal. […] Exposure to white light increased the frequency of action potentials dramatically (FIGS. 4, A–D, and FIG. 5). Peak firing frequencies of 7.5 Hz (evaluated in sliding 2-s windows), equal to those generated by the direct injection of 200–250 pA of sustained depolarizing current into transfected and untransfected neurons, appeared after latency periods of a few hundred ms to several tens of s (n=18 neurons). […]

[2] = test system: Xenopus oocytes; experiment: Light-evoked photocurrents in voltage-clamped Xenopus oocytes expressing Drosophila phototransduction proteins; assay type: cell-based
Description: as §1
Stage VI oocytes were microinjected with the specified mRNA mixtures, which were adjusted to keep the doses of individual messages constant at 2–4 fmol/oocyte. Photocurrents were recorded at −80 mV with a two-electrode voltage-clamp amplifier (Axoclamp-2B, Axon Instruments) 2–4 days after mRNA injection. Electrodes (2–3 MΩ) were filled with 3 M KCl; the extracellular recording solution (Barth's Saline) contained, in mM, 87.5 NaCl, 2 KCl, 2.4 NaHCO3, 2 CaCl2, 1 MgCl2, 5 Tris-HCl, pH 7.2. Signals were externally amplified (CyberAmp 380, Axon Instruments) before digitization at 100 Hz (Digidata 1200, Axon Instruments). To block IP3-sensitive Ca^2+ stores where indicated, 20 μM xestospongin C (Gafni et al., 1997; Calbiochem) was present throughout the experiment, beginning with the retinal load.
Unliganded NinaE in the membrane of voltage-clamped oocytes was reconstituted in the dark with 40 μM synthetic all-trans retinal, to form a metarhodopsin-like intermediate that could be further photoconverted (Hillman et al., 1983; Kiselev and Subramaniam, 1994; Ranganathan and Stevens, 1995) to rhodopsin. […]

## NC(CCCP(=O)(O)O)C(=O)O (racemic) [AP-5, D,L-2-amino-5-phosphonovaleric acid]
[1]
  EPSPs in the membrane potential record under glutamate receptor block: vanished; also recorded: elimination
  light-induced action potentials under glutamate receptor block: persisted

## N#Cc1cc2c(cc1[N+](=O)[O-])=NC(=O)C(=O)N=2 [CNQX, 6-cyano-7-nitroquinoxaline-2,3-dione]
[1]
  EPSPs in the membrane potential record under glutamate receptor block: vanished; also recorded: elimination
  light-induced action potentials under glutamate receptor block: persisted

## CC1=C(/C=C/C(C)=C/C=C/C(C)=C/C=O)C(C)(C)CCC1 [all-trans retinal]
[2]; 40 μM all-trans retinal, 15 min in the dark, n=9 oocytes
  dependence of light-evoked current responses on reconstitution of NinaE with retinal: required
[2]; NinaE reconstituted with 40 μM all-trans retinal for 15 min, then retinal-free perfusion for hours, n=8 oocytes
  photocurrent over time after a single retinal load, in the absence of exogenous retinal: no attenuation

## C1CCC[C@H]2CCCN3CC[C@@H](CCCCCC[C@@H]4CCCN5CC[C@@H](CC1)O[C@@H]45)O[C@@H]23 [xestospongin C]
[2]; 20 μM xestospongin C present throughout, oocytes expressing 10 photoreceptor proteins, n=5 oocytes
  light-evoked current responses in the presence of xestospongin C: inhibited

— patent publication US7144733B2, “Bio-synthetic photostimulators and methods of use” (Sloan-Kettering Institute for Cancer Research, priority 2001, dated 2006)
